Experimental data reported in publication PMC10065799, “High-throughput profiling of sequence recognition by tyrosine kinases and SH2 domains using bacterial peptide display” (eLife, 2023).

Columns and labels:
Test in all cases: pTyr-Var library bacterial peptide display kinase screen (enrichment scores)
[1] = target: T1, c-Abl kinase domain (Mus musculus, UniProt P00520); format: biochemical;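 note: log2 fold change in enrichment of variant over reference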
T1 sequence (P00520 242-493 limits assumed): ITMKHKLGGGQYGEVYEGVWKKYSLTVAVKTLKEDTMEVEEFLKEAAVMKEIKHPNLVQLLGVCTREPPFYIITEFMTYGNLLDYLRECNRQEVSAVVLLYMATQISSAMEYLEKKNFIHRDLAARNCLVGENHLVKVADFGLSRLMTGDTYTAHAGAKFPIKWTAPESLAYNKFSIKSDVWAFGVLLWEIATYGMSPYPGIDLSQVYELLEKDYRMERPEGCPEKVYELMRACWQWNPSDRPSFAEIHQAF

[2] = target: c-Src kinase domain (Homo sapiens, UniProt P12931); format: biochemical; settings: sheet "Src";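 note: log2 fold change in enrichment of variant over reference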
[3] = test system: Fer kinase domain; format: biochemical, mouse; settings: sheet "Fer";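 note: log2 fold change in enrichment of variant over reference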
[4] = test system: EPHB1 kinase domain; format: biochemical, human; settings: for Screen (variant relative to reference peptide, measured in the pTyr-Var library screen): sheet "EPHB1", variant seq vs reference seq, bacterial peptide display enrichment; for Screen: sheet EPHB1, effect of the variant peptide relative to its reference peptide in the pTyr-Var library screen (enrichment scores)
[5] = test system: EPHB2 kinase domain; format: biochemical, human; settings: sheet EPHB2; effect of variant peptide relative to its reference peptide in the pTyr-Var library screen (enrichment scores);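 note: log2 fold change in enrichment of variant over reference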
[6] = sheet "Abl", effect of variant peptide relative to its reference peptide in pTyr-Var library screen (enrichment)
[7] = effect of the variant peptide relative to its reference peptide in the pTyr-Var library screen
[8] = fig5-data2, sheet "Abl", Screen for the variant/reference peptide pair, pTyr-Var library
[9] = value of the variant peptide against its reference peptide in the pTyr-Var library screen with Fer
[10] = variant peptide versus its reference peptide in the pTyr-Var library screen
[11] = variant peptide relative to its reference peptide, pTyr-Var library screen enrichment

DTQNSYRCATS [TSC1_Y304_G305R]
Screen [1, 6]: -1.491

DKPENYRRLDI [VHL_Y175_V170D]
Screen [1, 6]: -0.4882

EWCSPYGLTPR [GRIN3B_Y601_R598C]
Screen [2, 7]: 1.62

KRIETYFSKNF [PLP1_Y50_L46R_YF]
Screen [1, 8]: -0.1285

ENKGVYVPMSG [IVD_Y277_L279P]
Screen [1, 8]: -1.069

LLKMMYLMLDN [STAT1_Y203_K201M]
Screen [1, 6]: 0.1881

QRCFVYFFSFL [PTEN_Y176_R173C_YF]
Screen [3, 9]: 0.1249

KGEDFYCVTRH [FHL1_Y149_C153R]
Screen [1, 8]: -2.042

ASPKSYPSQKH [CAP2_Y316_T311A]
Screen [1, 8]: 0.389

RRIHSYRGHLC [VHL_Y112_W117C]
Screen (variant relative to reference peptide, measured in the pTyr-Var library screen) [4]: -1.181
Screen [2, 10]: -2.769

RPAFTYATLIR [FOXP3_Y342_P339A]
Screen [4]: -0.4742
Screen [2, 7]: 1.034
Screen [1, 8]: 1.493

PLGPLYASSNT [INSR_Y992_P997T]
Screen [3, 9]: -0.7776

REGAKYVSHCA [ASS1_Y113_G117C]
Screen [1, 8]: -1.469

DPLLTYLFPPK [LMNA_Y481_R482L]
Screen [2, 7]: 2.327

HRGCLYLAIEF [TEK_Y899_Y897C_YF]
Screen [5]: 0.2155

PKSWNYELPAT [PROM1_Y34_A31S]
Screen [5]: 0.6095
Screen [4]: 0.9154

NNDLCYWVLEL [IARS1_Y434_P437L]
Screen [5]: -2.3
Screen [4]: -1.633
Screen [2, 7]: 1.285

LEQGEYALRSH [HADHB_Y244_D242G]
Screen [5]: -1.376

TENAGYFFQVS [TTN_Y31721_R31724Q_YF]
Screen [1, 6]: -1.788

EGDGVYTLNNK [HP_Y125_E130K]
Screen [2, 7]: 0.08373

EVDETYVPKKF [ALB_Y521_E525K]
Screen [1, 8]: 0.9455

LTERSYSFVTT [ACTA1_Y200_G199S]
Screen [3, 9]: 1.792
Screen [1, 8]: 0.4799

RRIHSYRGQLW [VHL_Y112_H115Q]
Screen (variant relative to reference peptide, measured in the pTyr-Var library screen) [4]: -1.797
Screen [2, 10]: -2.232

EIASHYRHLLR [ZBTB46_Y14_T11A]
Screen [1, 6]: -2.772

SLNEEYAKNKT [MSH2_Y563_T564A]
Screen [1, 8]: 0.808

EFTAGYNVKFD [GPX4_Y123_A120T]
Screen [1, 8]: -0.6842

LPKDLYLISQM [LARP4_Y141_S137P]
Screen [4]: -0.9052

IGGHAYGDQFR [IDH1_Y135_R132G_YF]
Screen [1, 8]: -1.313

KFLENYFDLEK [MMP3_Y41_K45E_YF]
Screen [4]: 0.3113

RALCHYFKLNI [ETV6_Y401_R399C_YF]
Screen [1, 8]: 0.924

IDAVCYFRMEN [NPHS2_Y194_I192V_YF]
Screen [1, 8]: -2.251

NAGDFYDLFGG [PTPN11_Y63_T59A_YF]
Screen [3, 11]: 0.394
Screen [2, 10]: 0.4386
Screen [1, 8]: -0.2092

IGERTYGQVFK [CDK13_Y716_G714R_YF]
Screen [2, 7]: -0.5578

HSREDYFECFQ [ZIM2_Y411_Q408R]
Screen (variant relative to reference peptide, measured in the pTyr-Var library screen) [4]: -0.06401
Screen [1, 6]: -4.72

DVQNEYDSNHC [ZFYVE16_Y36_A35E]
Screen [1, 6]: 2.88

FGSGNYNVFGN [HNRNPA2B1_Y300_D302V_YF]
Screen [4]: -1.963

QPEDIYHQTWA [GBA_Y244_G241E]
Screen [3, 9]: 1.354
Screen [2, 7]: 0.7767

LDFNEYFRFLN [HPRT1_Y198_D201Y_YF]
Screen [2, 7]: 2.939

LEIETYPRLLD [KRT12_Y429_R430P]
Screen [1, 8]: 0.133

QMVGKYASSFM [AVPR2_Y124_M123K_YF]
Screen [2, 7]: -1.364

KHCEDYVFSFN [DSC1_Y846_C848F_YF]
Screen [2, 7]: 1.064

MGSFNYLGFAW [SPTLC2_Y178_R183W_YF]
Screen (variant relative to reference peptide, measured in the pTyr-Var library screen) [4]: 1.333

KEKLCYVAPDF [ACTA1_Y220_L223P]
Screen [2, 7]: -1.653

IRSGIYFKPES [L2HGDH_Y102_H98R_YF]
Screen [2, 7]: -1.512

LFSNAYLSDLA [ALDH1A1_Y119_N121S_YF]
Screen [4]: 1.358
Screen [2, 7]: 1.319

FVPSFYHAFSG [ACTN4_Y265_S262P_YF]
Screen [4]: -0.2788
Screen [2, 7]: -1.103

LKMLVYMDMSK [LRRC7_Y234_L235M]
Screen [4]: 1.011

TGFRPYVCPFD [YY1_Y383_D380Y_YF]
Screen (variant relative to reference peptide, measured in the pTyr-Var library screen) [4]: 1.233
Screen [1, 6]: -3.682

QQMGTYGVRAA [ICAM2_Y260_R256Q]
Screen [2, 7]: 0.6458

FPSLPYSPVSS [CAMKK2_Y128_C123Y_YF]
Screen [3, 9]: -0.5143

CPFNLYAAQLS [HGD_Y40_E42A_YF]
Screen [4]: 0.6281

CFSSEYHFVGG [CTSC_Y345_Y340C_YF]
Screen [5]: -0.9567
Screen [4]: -0.7957
Screen [2, 7]: -0.6697

KDHPDYKFQRR [SOX10_Y171_P175R_YF]
Screen [1, 6]: -0.3891

KCCCIYEKPRS [PPP1R11_Y64_A69S]
Screen [3, 9]: -0.1382
Screen [2, 10]: -0.2424
Screen [1, 8]: 0.7147

NQELIYEGQRL [TBK1_Y354_R357Q]
Screen [3, 11]: 0.5191
Screen [2, 10]: -0.1995

PPSELYFVKVD [TERT_Y707_P704S]
Screen [2, 10]: -0.06532

PRLMLYNPTTF [EGFR_Y270_P266R_YF]
Screen [1, 8]: -1.245

NNHGNYIVLLG [ETFDH_Y172_R175L]
Screen [5]: 2.804
Screen [4]: 3.773

KPGVNYFFQVS [TTN_Y28165_R28168Q_YF]
Screen [1, 6]: -1.428

FRRITYFNWRH [PDE6B_Y556_H557Y_YF]
Screen [1, 8]: 1.003

IDPFTYTPFGS [CYP3A4_Y432_I431T_YF]
Screen [3, 9]: -1.49
Screen [2, 7]: -1.161

VWALTYCDLHK [KCNH2_Y827_R823W]
Screen [4]: 1.577

EIIPFYGMSSF [FNDC3B_Y175_T179S_YF]
Screen [1, 8]: -1.124

SVTFTYSPALN [TP53_Y126_C124Y_YF]
Screen [1, 6]: 1.264

DKATEYIQFVR [MAX_Y70_M74V_YF]
Screen [1, 8]: 0.6462

EFITRYIDSLK [PSMA7_Y110_A112D_YF]
Screen [1, 8]: -0.5363

RRGMPYGGHGD [TGM1_Y312_R315H]
Screen [1, 6]: 0.4767

RLNCIYFKDQT [RS1_Y165_W163C_YF]
Screen [1, 8]: 0.3384

QRHFVYFFSFL [PTEN_Y176_R173H_YF]
Screen [3, 9]: 0.1451

GFKVRYATGSI [FGFR1_Y210_W213G_YF]
Screen [1, 8]: 1.302

DVRQEYSGMIL [PLXND1_Y616_P617S]
Screen [1, 8]: -0.7051

RSHRSYSCQVM [IGLL1_Y192_R189H]
Screen [1, 8]: -0.4092

IVRSLYEDPED [VHL_Y185_L188P]
Screen [1, 6]: -2.672

FTFNSYFMHWV [IGHV1-46_Y51_T49N_YF]
Screen [3, 9]: 1.775

SSSPTYLDLPF [GLI3_Y168_P169L]
Screen [4]: 3.84

ASENVYVNTAH [CTSC_Y150_I153T]
Screen [3, 9]: -2.892
Screen [4]: -1.518
Screen [2, 7]: -1.46

RVLHNYLVWCV [ECEL1_Y400_R404C]
Screen [4]: -0.3702

LEPGIYIPEDD [XPNPEP3_Y455_I450L]
Screen [1, 6]: -2.688

NGEDLYAGSTD [XRCC1_Y515_P514L]
Screen [1, 6]: 3.605

VDGSVYKLPPS [GCK_Y413_H416P]
Screen [2, 7]: -1.181

NVADHYRVFKP [ATP6V0D2_Y271_G272R_YF]
Screen [2, 7]: -3.184

CVAARYMDMKG [WFIKKN2_Y93_V96M]
Screen [1, 6]: -2.912

FDSPFYQDSLP [TSC1_Y508_R509Q]
Screen [3, 11]: 2.568

PNAFIYVVQLP [L1CAM_Y420_A415P_YF]
Screen [5]: 0.851
Screen [1, 8]: 0.6294

PEVSGYCHFAD [TG_Y234_C237Y_YF]
Screen (variant relative to reference peptide, measured in the pTyr-Var library screen) [4]: -1.855

PLDGGYFTLQI [TP53_Y327_E326G]
Screen [2, 10]: -1.493

SDPIVYTLENI [EMR1_Y534_I533V]
Screen [3, 9]: -1.778
Screen [2, 7]: -0.3296

ESAAIYNPVIF [RHO_Y301_K296E_YF]
Screen [3, 11]: 0.08101
Screen [2, 10]: 0.5635

MLEVPYVDHNS [F10_Y384_R387H]
Screen [1, 8]: 2.373

SVMAEYGLFRA [VSX2_Y219_G223R_YF]
Screen [2, 10]: -0.02483

AGDGRYEVLFL [SEMA3F_Y478_A474G]
Screen [3, 11]: 0.6103

DPEGAYTTRGG [EPHA3_Y779_A777G]
Screen [1, 8]: -2.084

NTGVFYDLFGG [PTPN11_Y63_D61V_YF]
Screen [3, 9]: 0.6171
Screen [2, 10]: 0.1029

RPPFTYATLIH [FOXP3_Y342_R347H]
Screen [4]: 0.127
Screen [2, 7]: 0.0554

FSCLPYRRLAF [SLC52A2_Y305_G306R_YF]
Screen [2, 10]: -1.493

FVTSMYNEILI [TRPV1_Y310_M315I]
Screen [3, 11]: 0.9219

RIDPDYMGRVR [IGSF9_Y81_V82M]
Screen [1, 8]: 0.7055

RGRSTYFWPSP [GAGE12J_Y9_R13S_YF]
Screen [1, 8]: 0.4744

PQDVTYARLHS [LILRB4_Y412_Q414R]
Screen [2, 7]: -0.3004
Screen [1, 8]: -1.045

EFQLPYFNTVP [BMPR1A_Y457_M460T_YF]
Screen [2, 7]: -0.7468

HLQDEYDFKCK [STAT1_Y170_D165H]
Screen [1, 6]: -0.7143
